The source of these data is patent US8889714B2, “3,4-substituted piperidine derivatives as renin inhibitors” (Actelion Pharmaceuticals Ltd., priority 2008, dated 2014).

Read-outs that look alike come from different tables or passages of the source.

Data set [1] deals with T1, Plasma renin activity (PRA) (Homo sapiens, UniProt P00797).
T1 construct: from tissue; host or cells: plasma of female double transgenic rats (human renin and angiotensinogen transgenes)
T1 sequence (P00797 67-406): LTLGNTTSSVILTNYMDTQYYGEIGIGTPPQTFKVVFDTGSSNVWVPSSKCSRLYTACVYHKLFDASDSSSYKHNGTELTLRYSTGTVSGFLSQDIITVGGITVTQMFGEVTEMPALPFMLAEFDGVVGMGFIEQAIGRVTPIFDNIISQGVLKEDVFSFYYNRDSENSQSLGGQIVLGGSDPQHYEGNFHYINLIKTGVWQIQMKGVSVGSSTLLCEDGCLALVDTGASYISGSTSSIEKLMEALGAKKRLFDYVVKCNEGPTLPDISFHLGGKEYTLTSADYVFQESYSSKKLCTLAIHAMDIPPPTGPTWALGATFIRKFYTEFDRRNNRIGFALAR
The data set can be described thus: Plasma renin activity (PRA) inhibition in dTG rats after TD delivery. The settings on record: TD 10 mg in DMSO (33 mg/kg); PRA at T4h vs T0h. The class given is in vivo, rat. The procedure: (§1) For transdermal delivery, double transgenic rats with implanted pressure transmitters were dosed with a single application on the shaved skin of the rat of vehicle (250 μl of 100% DMSO; n=4) or of the test compound (10 mg in 250 μl of 100% DMSO, i.e. 33 mg/kg; n=5). The rat was lightly sedated under 2.5% isoflurane anesthesia, and its back was shaved over a 4 cm^2 area. The animal was returned to his cage to recover from anesthesia. Twenty-four hours later, the rat was lightly sedated under 2.5% isoflurane anesthesia, and the shaved area disinfected with 3 passes of ethanol.
A blood sample (0.3 ml) was taken by tail bleed or jugular iv in the telemetrized dTGs, at T0h, T4h and T24h after TD delivery to determine test substance levels and bioavailability (estimated as area under the curve, or AUC) of the active substance in systemic circulation. Plasma renin activity (PRA) was also measured at T0h and T4h. The effect of the test substance on PRA is expressed as the percentage of inhibition of PRA at T4h vs T0h.

Data set [2] is described as follows: Test substance levels / bioavailability (AUC) in systemic circulation of telemetrized dTG rats. Format: in vivo. The settings on record: double transgenic (dTG), rat, T24h, read-out: AUC24h.
Data set [3] has as its system female double transgenic rats (transgenic for human renin and angiotensin). The data set can be described thus: Telemetry of mean arterial blood pressure after oral vs transdermal delivery in double transgenic rats. Format: in vivo, rat. The settings on record: for ABC36h: area between curves of MAP. The procedure:
Female double transgenic rats (rats transgenic for human renin and […] (see, e.g., Bohlender et al., J Am Soc Nephrol 11:2056 (2000)) were developed. All animals were maintained under identical conditions and had free access to normal pelleted rat chow and water. Rats were initially treated with enalapril (1 mg/kg/day), starting 3 weeks after birth and during 9 weeks. Telemetry transmitters are implanted within 2 to 4 weeks after cessation of enalapril treatment. After approximately two weeks following cessation of enalapril treatment, the double transgenic rats are hypertensive with mean arterial blood pressures in the range of 160-170 mmHg.
Transmitter implantation—The rats were anesthetized using isoflurane (via inhalation, 2-3%) The pressure transmitter was implanted under aseptic conditions into the peritoneal cavity with the sensing catheter placed in the descending aorta below the renal arteries pointing upstream. The transmitter was sutured to the abdominal musculature, the skin closed, and the rats were individually housed in a cage, placed on a telemetry receiver pad to enable collection of the blood pressure data during recovery from anesthesia and thereafter. The rats were single-caged for the duration of the recording of telemetry data.
Telemetry System—Telemetry units were obtained from Data Sciences International (DSI, St. Paul, Minn.). […] The tip of the catheter was filled with a viscous gel that prevents blood reflux. The implants (length=2.5 cm, diameter=1.2 cm) weighed 9 g and have a typical battery life of 6 months. A receiver platform (RPC-1, DSI) connected the radio signal to digitized input that was sent to a dedicated personal computer. Arterial pressures were calibrated by using an input from an ambient-pressure reference (APR-1, DSI). Systolic, mean and diastolic blood pressure was expressed in millimeter of mercury (mmHg).
Telemetry data analysis—Signals received by the receivers were digitized for 10 seconds every 5 minutes, at 500 Hz. From this signal, mean arterial pressure (MAP), systolic and diastolic blood pressure (SBP and DPB), pulse pressure (PP), heart rate (HR) and activity (ACT) were derived. A one-hour moving average of the data was then performed by the DSI analysis software. Data were then exported to an Excel template for the calculation of group statistics, areas between curves (ABC), maximal effect and duration of MAP reduction.
Drug administration—For oral delivery, double transgenic rats with implanted pressure transmitters were dosed by oral gavage with a single bolus of vehicle (0.5% methocel; 5 ml/kg) or of the test substance (30 mg/5 ml/kg) (n=5 per group). After dosing, the rat was returned to his cage. Blood pressure data were collected up to 5 days after oral dosing.
as §1
After evaporation of the ethanol, a volume of 250 μl of 100% DMSO only, or of the compound dissolved in a 100% DMSO solution was applied over the shaved area using a micropipette. After complete evaporation of the DMSO solution (within 5 min after application), an occlusive transparent, waterproof film (OpSite) was taped to the back of the animal over the shaved area, and a jacket was fitted on the animal. Isoflurane inhalation was stopped, and the animal individually caged for telemetry data collection. Blood pressure data were collected up to 5 days after application of the compound/DMSO solution.

Setting [4] is: PO, single oral gavage 30 mg/5 ml/kg in 0.5% methocel.
The mark [5] stands for this setting: TD, single application 10 mg in 250 μl 100% DMSO (33 mg/kg) on shaved skin.

Turning to `COCCCc1cc(CN(C(=O)[C@H]2CNCC[C@@H]2c2ccn(C)c(=O)c2)C2CC2)cc(Br)c1C` (relative stereo) [test substance, trans-N-({3-Bromo-4-methyl-5-[3-(methyloxy)propyl]phenyl}methyl)-N-cyclopropyl-4-(1-methyl-2-oxo-1,2-dihydro-4-pyridinyl)-3-piperidinecarboxamide], the “PRA inhibition at 4 h” value in data set [1] is recorded as 98%. The AUC(0-t) in data set [2] (topical, TD 10 mg in DMSO (33 mg/kg), blood samples at T0h, T4h) worked out at 2900 nM·h. In addition, the AUC(0-t) in data set [2] (PO 30 mg/kg, blood samples at T0, T6h) was determined as 1800 nM·h. In data set [3] (setting [4]), the “duration of MAP reduction” value was 2 days, the “max MAP decrease” value is listed as 57 mmHg and the ABC36h was determined as 1143 mmHg * h. In addition, in data set [3] (setting [5]), the “duration of MAP reduction” value amounted to 1 days, the “max MAP decrease” value was found to be 30 mmHg and the ABC36h is on record as 514 mmHg * h.
